Measurements from patent publication US20160129005A1, “ADENINE DERIVATIVES HAVING IMMUNOMODULATING ANTI-INFLAMMATORY AND ANALGESIC ACTIVITY” (MEDESTEA RESEARCH & PRODUCTION S.p.A., priority 2011, published 2016).

What was measured:
female NOD mice = assay: Type 1 diabetes spontaneous model; assay type: in vivo, mouse; conditions: 0.25 mg intravenously 5 days every two weeks from 11 weeks of age; at the 28th week; carriers 7 out of 14
Description: NOD (“non-obese diabetic”) mice represent the spontaneous murine model of type 1 diabetes (Adorini et al., 2002). The loss of metabolic control characterized by hyperglycaemia and glycosuria, which defines the disease clinically, is preceded by a long phase called pre-diabetes, during which the response to specific autoantigens of the beta cells of the pancreas develops subclinically, but progressively. In the NOD mice, the disease begins clinically around the 14th week of age when the infiltrating inflammatory cells invade the islets and develop an aggressive insulitis, which leads to destruction of the beta cells and causes hyperglycaemia (Anderson and Bluestone, 2005). The autoreactive CD4+ and CD8+ T cells play a fundamental role in the pathogenesis of type 1 diabetes.
We treated female NOD mice at 11 weeks of age with 0.25 mg […] or carriers intravenously for 5 days every two weeks and monitored glycaemia every week. Only one out of 8 mice treated with […] developed diabetes at the 28th week of age, whereas 7 out of 14 mice treated with carriers developed diabetes or died starting from the 14th week of age (FIG. 32).

C57BL/6 WT mice = assay: Allergic contact dermatitis (TNCB sensitization, ear thickness); assay type: in vivo, mouse; conditions: 2 mg/kg injected locally in the auricle 4 hours before stimulus; FIG. 36
Experimental: C57BL/6 WT mice are sensitized by applying, on day 0, 100 μl of 3% TNCB (2,4,6-trinitrochlorobenzene) in acetone, or only acetone as control, on the skin of the abdomen.
As stress, 20 μl of 1% TNCB is applied on the skin of the back of both ears on day 5. This stress causes an allergic reaction that is manifested as swelling and reddening. The thickness of the ear (symptom of swelling) is measured 24 hours after application of the stimulus, using callipers (Mitutoyo). […] was injected locally in the auricle at a dose of 2 mg/kg 4 hours before the […] stimulus.

Sprague-Dawley (SD) rats = assay: Renal ischaemia/reperfusion injury; assay type: in vivo, rat
Description: Ischaemia is an acute pathologic event in which there is reduction in blood supply with resultant injury or dysfunction of the affected tissue. Currently, the obstructed blood vessel is cleared by direct intervention. The resumption of normal circulation after a period of hypoxia causes quite considerable tissue injury, however, with fibrotic results that undermine the functionality of the affected organ. […] We wanted to check whether […] could reduce the injury due to reperfusion and to do so we used a model of renal ischaemia. The model envisages creation of an ischaemic event and then verification of the injury following treatment with […] or with the vehicle.
The experiment was conducted on Sprague-Dawley (SD) rats of 250-300 g divided into three groups. The first group, the […], only underwent an incision, which was kept open for 30 minutes, without ischaemic injury. The other two were pretreated, 30 minutes before undergoing the intervention, with intraperitoneal administration of vehicle (group 2) or of […] (group 3) 10 mg/kg. […]
The kidneys were sectioned for histologic analysis in double-blind conditions. The percentages of the tissue changes observed were counted using a 5-point semiquantitative scale, defined for assessing necrosis and cellular loss: 0=normal kidney; 0.5=<10%; 1=10-25%; 2=25-50%; 3=50-75%; 4=75-100%.

male Wistar rats = assay: Carrageenan-induced acute inflammation of plantar pads; assay type: in vivo, rat
Experimental: The role of […] was investigated by inducing inflammation of the plantar pads of rats with carrageenan, a model that mimics the state of acute inflammation in humans.
Inflammation was induced in male Wistar rats by means of injection of 0.1 ml of carrageenan at 1% in sterile saline solution in the rats' right plantar pad. Peak inflammation occurs 3 hours after injection of carrageenan; at this point (t=0), the rats are treated with […] or diclofenac or indometacin (100 μM in 0.15 ml); the antinociceptive effect of the drugs was measured at 1, 3, 6, 12 and 24 hours after their administration.

naive CD4 cells = assay: Induction of T regulatory (Treg) cells from naive CD4 cells; assay type: cell-based, mouse; conditions: anti-CD3 stimulation 96 h, increasing concentrations; FIG. 22
Experimental: We evaluated the capacity of […] to induce in vitro the differentiation of naive CD4 cells into immunosuppressive Treg cells characterized by the phenotype CD4+CD25+ and by expression of the Foxp3 transcription factor. […] The naive CD4 cells were stimulated with anti-CD3 antibodies for 96 h in the presence of increasing concentrations of […].

[1] = tested on: mice with the R117H CFTR(CF) mutation and wild-type (WT) mice; assay: Cystic fibrosis: intratracheal LPS in R117H CFTR and WT mice; assay type: in vivo, mouse
Experimental: For the experiments, 32 mice were used with the R117H CFTR(CF) mutation, responsible for the onset of the inflammatory disorder, and 18 wild-type (WT) mice with a genetic background of the C57BL/6 type.
The trachea was then intubated with a MicroSprayer (PennCentury), capable of vaporizing the drug as aerosol at a concentration of 25 μl of […] 300 μM or of vehicle. The mice were weighed daily.
On day 4, all the mice received the inflammatory stimulus (1 μg of LPS) together with […] or vehicle; separate experiments were conducted, inducing only the inflammatory stimulus in the mice. About 24 hours after administration of LPS, the mice were sacrificed and samples of BALF were collected, from which the cellular component was isolated, and was analysed under the microscope for characterizing its leukocyte phenotype.

male Fischer inbred rats = assay: Model of arthritis: complete Freund adjuvant paw inflammation, plantar test (Hargreaves); assay type: in vivo, rat
Experimental: […] was tested for possible antinociceptive and anti-inflammatory activity in a murine model of arthritis.
Unilateral inflammation of the posterior plantar pad of the rat (male Fischer inbred rats) was induced with a local injection of complete Freund adjuvant.
[…], 4 mg/kg, was administered intraperitoneally.
The rats were put in a transparent plastic chamber and were left to acclimatize for 5 minutes before the test.
Thermal stimulus, applied to the surface of the plantar pads of the rats, was produced by a halogen lamp (64607 OSRAM) of 8 V-50 W, through the plastic box; the diameter of the radiant beam measured about 12 mm. The time for withdrawal of the animal's right plantar pad was measured before and after injection of […].
A comparison was conducted on the anti-hyperalgesic and anti-inflammatory effect of a cortisone derivative, methylprednisolone acetate, administered intraperitoneally (5 mg/kg).

Compound: C=C(C=O)OC(C=O)n1cnc2c(N)ncnc21 (centres unmarked) [2-[1-(6-aminopurin-9-yl)-2-oxoethoxy]prop-2-enal]
- mice that developed diabetes (female NOD mice): one out of 8
- allergic reaction (thickness of the ear) (C57BL/6 WT mice): able to inhibit the allergic reaction
- renal injury (histological damage score and organ functionality) (Sprague-Dawley (SD) rats; 10 mg/kg i.p., FIG. 6): largely prevents renal injury
- plasma creatinine levels (Sprague-Dawley (SD) rats; group 3, 10 mg/kg i.p. 30 minutes before ischaemia, 24 hours, group 1 = sham, FIG. 5): values much closer to those of group 1
- macrophages infiltrating the plantar pad (immunohistochemistry) (male Wistar rats; biopsies from plantar pads): significantly reduces the presence of macrophages
- effect on thermal hyperalgesia compared with diclofenac or indometacin (male Wistar rats; single dose 6 mg/kg): greater than the effect produced by diclofenac or indometacin
- thermal hyperalgesia in the plantar pads (male Wistar rats; single dose 6 mg/kg, local and intravenous, for 24 hours): significantly reduces thermal hyperalgesia
- differentiation of naive CD4 cells into Treg cells (CD4+CD25+ Foxp3) (naive CD4 cells): induced the differentiation of Treg cells in a manner that was dependent on the dose used
- reduction in concentrations of IL-1β, IL-6, TNFα and the murine analogue of IL-8 in BAL ([1]; CF and WT mice, FIGS. 42B and C): 56%-83%
- decrease in neutrophil percentage relative to vehicle ([1]; CF mice, intratracheal LPS, 25 μl of 300 μM aerosol, p<0.001, FIG. 42A): 60%
- decrease in the percentage of neutrophils ([1]; WT mice, intratracheal LPS, compared to 89% for vehicle, p<0.01): 47%
- body weight ([1]; within first 24 hours, vehicle lost 4-8%, FIG. 41): no change in their body weight
- time for withdrawal of the plantar pads (thermal stimulus) (male Fischer inbred rats; 4 mg/kg intraperitoneally, to levels comparable to baseline, FIG. 7): significantly increases the time for withdrawal of the plantar pads
- action relative to methylprednisolone acetate (male Fischer inbred rats; IMMUFLAM 4 mg/kg i.p. vs methylprednisolone acetate 5 mg/kg i.p.): more effective action
